Laboratory results as given in patent US4590166A, “Method for separating and measuring the amount of polar compounds and their metabolites in aqueous solutions” (priority 1983, dated 1986).

What was measured:
[1] = urinary excretion of pyridostigmine in rats; type: in vivo, rat
Description: (§1) For animal studies, rats weighing 175-225 g were placed in metabolic cages and deprived of solid food for 14 hours. For urine studies they were hydrated by the administration of 2.5 ml per 100 g of warm water by stomach tube. This was repeated after 1 hour. An 80 μg aliquot of pyridostigmine in 0.2 ml water was injected intramuscularly into a hind limb. Urine free from feces was collected over a period of 24 hours. In blood studies a similar dose was administered intramuscularly. At selected intervals over a period of 1 hour blood specimens were collected from excised hearts.
(§2) The assay was applied to the quantitation of pyridostigmine in urine and plasma of rats following the oral administration of 450 μg of pyridostigmine bromide per kg of body weight. One ml of urine and 1.5 ml of plasma samples were used for an assay. The urinary excretion of pyridostigmine in three rats over a 24-hour period was 60.0 and 65.4% of […]

[2] = extraction of pyridostigmine from basic solutions by organic solvents; type: physicochemical
[3] = plasma levels of pyridostigmine in rats; type: in vivo, rat
Description: as §1, §2

CN(C)C(=O)Oc1ccc[n+](C)c1 [pyridostigmine]
urinary excretion of pyridostigmine (% of the total dose injected) ([1]; over a 24-hour period, 450 μg/kg pyridostigmine bromide, 0.45 mg/kg, 1440 min): 65.4%
dose excreted at 48 h ([1]; rat, urine, im, 0.08 mg, between 24 and 48 hours, read-out: urinary excretion (% of the total dose injected)): < 5%
dose excreted at 24 h ([1]; rat, urine, im, 0.45 mg/kg, over a 24-hour period, 450 μg/kg pyridostigmine bromide, read-out: urinary excretion of pyridostigmine (% of the total dose injected)): 60%
extraction from basic solutions by organic solvents of various polarities [2]: could not extract
initial plasma concentrations relative to that of urine ([3]; average of three experiments for a single time point): about 1/25
concentration at 7 min ([3]; plasma, im, 0.08 mg, approximately 80 μg per rat, after 7 min): 250 ng/mL
concentration at 1 h ([3]; plasma, im, 0.08 mg, approximately 80 μg per rat, within 1 hour): < 50 ng/mL
